In PubChem BioAssay AID1919009 (Molecular Pharmacology Branch, DTP, NCI, 2023) one finds IC50 and viability, T/C data, which are given here for five compounds.

Where “and” joins values, the source holds several entries; their conditions need not be identical. Identical values can stand only once.

This experiment has as its system K24384-001-R-PDC complex spheroid growth. Briefly: Anticancer human tumor K24384-001-R-PDC patient-derived pancreatic adenocarcinoma cell line growth inhibition [AhR]. Particulars: for viability, T/C: stronger effect = lower value. Summed up: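 Complex tumor spheroids co-cultured with HUVEC and human MSC stroma; AhR antagonists tested in combination with standard-of-care and investigational agents. Top concentration at or near clinical Cmax (else 10 microM), half-log dilutions; growth expressed as percent test/control.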

Where [1] appears, read: curve of first compound, second compound 0.1 µM.
The mark [2] stands for this setting: curve of first compound, second compound 0.316 µM.
[3] abbreviates: curve of first compound, second compound 1 µM.
The mark [4] stands for this setting: curve of first compound, second compound 3.16 µM.
[5] abbreviates: curve of first compound, second compound 10 µM.
The mark [6] stands for this setting: second compound 0.1 µM, first compound 0.0316 µM.
The mark [7] stands for this setting: second compound 0.1 µM, first compound 0.1 µM.
The mark [8] stands for this setting: second compound 0.1 µM, first compound 0.316 µM.
[9] abbreviates: second compound 0.1 µM, first compound 1 µM.
The mark [10] stands for this setting: second compound 0.316 µM, first compound 0.0316 µM.
[11] abbreviates: second compound 0.316 µM, first compound 0.1 µM.
Where [12] appears, read: second compound 0.316 µM, first compound 0.316 µM.
[13] abbreviates: second compound 0.316 µM, first compound 1 µM.
Setting [14] is: second compound 1 µM, first compound 0.0316 µM.
Setting [15] is: second compound 1 µM, first compound 0.1 µM.
Where [16] appears, read: second compound 1 µM, first compound 0.316 µM.
Where [17] appears, read: second compound 1 µM, first compound 1 µM.
The mark [18] stands for this setting: second compound 3.16 µM, first compound 0.0316 µM.
Setting [19] is: second compound 3.16 µM, first compound 0.1 µM.
The mark [20] stands for this setting: second compound 3.16 µM, first compound 0.316 µM.
Where [21] appears, read: second compound 3.16 µM, first compound 1 µM.
The mark [22] stands for this setting: second compound 10 µM, first compound 0.0316 µM.
[23] abbreviates: second compound 10 µM, first compound 0.1 µM.
[24] abbreviates: second compound 10 µM, first compound 0.316 µM.
Where [25] appears, read: second compound 10 µM, first compound 1 µM.

A word on the IC50: it is the concentration at which inhibition is half-maximal. In general, viability, T/C refers to the result in the treated group divided by that in the control group, in per cent.
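Wherever viability, T/C is given: percent of DMSO vehicle-treated spheroid viability set as 100%.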

On to `Nc1ccn(C2OC(CO)C(O)C2(F)F)c(=O)n1` (centres undefined) + Cc1cncc(-c2nc(NCCc3c[nH]c4ccccc34)c3ncn(C(C)C)c3n2)c1, for which the IC50 under setting [1] was 507 nM; the IC50 under setting [2] was determined as 636 nM; the IC50 under setting [3] is 928 nM; the IC50 under setting [4] worked out at 3070 nM; the IC50 under setting [5] was under 31.6 nM. Besides, the viability, T/C by setting is: under setting [6], 73.7%; under setting [7], 74.8%; under setting [8], 51.2%; under setting [9], 42.9%; (second compound 0.1 µM, first compound 3.16 µM) 32.4%; (second compound 0.1 µM, first compound 10 µM) 24.5%. The viability, T/C under setting [10] was 104%; the viability, T/C under setting [11] was 79.1%; the viability, T/C under setting [12] is 50.8%; the viability, T/C under setting [13] was 51.1%; the viability, T/C (second compound 0.316 µM, first compound 3.16 µM) was 35.1%; the viability, T/C (second compound 0.316 µM, first compound 10 µM) is 19.6%. Moreover, the viability, T/C runs as follows: under setting [14], 98.1%; under setting [15], 111%; under setting [16], 74.2%; under setting [17], 50.4%; (second compound 1 µM, first compound 3.16 µM) 41.6%; (second compound 1 µM, first compound 10 µM) 29.2%. Moreover, the viability, T/C is 117% under setting [18]; 114% under setting [19]; 83.9% under setting [20]; 70.1% under setting [21]; 51.7% (second compound 3.16 µM, first compound 3.16 µM); 31.2% (second compound 3.16 µM, first compound 10 µM). Also, the viability, T/C is, setting by setting: under setting [22], 13.9%; under setting [23], 11.2%; under setting [24], 13.6%; under setting [25], 8.91%; (second compound 10 µM, first compound 3.16 µM) 10.4%; (second compound 10 µM, first compound 10 µM) 10.4%.

In the case of `CC(C)CC(NC(=O)C(Cc1ccccc1)NC(=O)c1cnccn1)B(O)O` (centres undefined), the viability, T/C was 105% and 92.1% and 95.6% (compound 0.000949 µM); 108% and 98.8% and 96.7% (compound 0.003 µM); 62.6% and 70.1% and 20.1% (compound 0.00949 µM); 2.24% and 1.22% and 0.66% (compound 0.03 µM); 0.59% and 0.38% and 0.4% (compound 0.0949 µM); 0.39% and 0.36% and 1.49% (compound 0.3 µM). For the same compound, the IC50 (curve of compound) was 12 nM and 13.3 nM and 6.03 nM.

`CCc1c2c(nc3ccc(O)cc13)-c1cc3c(c(=O)n1C2)COC(=O)[C@]3(O)CC` + Cc1cncc(-c2nc(NCCc3c[nH]c4ccccc34)c3ncn(C(C)C)c3n2)c1: the IC50 runs as follows: under setting [1], 2.95 nM; under setting [2], 3.6 nM; under setting [3], 5.67 nM; under setting [4], 6.01 nM; under setting [5], under 0.949 nM. Besides, the viability, T/C reads like this: (second compound 0.1 µM, first compound 0.000949 µM) 67.3%; (second compound 0.1 µM, first compound 0.003 µM) 48.4%; (second compound 0.1 µM, first compound 0.00949 µM) 33.4%; (second compound 0.1 µM, first compound 0.03 µM) 34.9%; (second compound 0.1 µM, first compound 0.0949 µM) 28%; (second compound 0.1 µM, first compound 0.3 µM) 16.8%. Also, the viability, T/C by setting is: (second compound 0.316 µM, first compound 0.000949 µM) 68.9%; (second compound 0.316 µM, first compound 0.003 µM) 47.1%; (second compound 0.316 µM, first compound 0.00949 µM) 37.6%; (second compound 0.316 µM, first compound 0.03 µM) 35.9%; (second compound 0.316 µM, first compound 0.0949 µM) 23.9%; (second compound 0.316 µM, first compound 0.3 µM) 14%. Further, the viability, T/C reads like this: (second compound 1 µM, first compound 0.000949 µM) 76.9%; (second compound 1 µM, first compound 0.003 µM) 59.1%; (second compound 1 µM, first compound 0.00949 µM) 41.5%; (second compound 1 µM, first compound 0.03 µM) 32%; (second compound 1 µM, first compound 0.0949 µM) 26.4%; (second compound 1 µM, first compound 0.3 µM) 16.8%. The viability, T/C by setting is: (second compound 3.16 µM, first compound 0.000949 µM) 60%; (second compound 3.16 µM, first compound 0.003 µM) 52.6%; (second compound 3.16 µM, first compound 0.00949 µM) 49.2%; (second compound 3.16 µM, first compound 0.03 µM) 29.8%; (second compound 3.16 µM, first compound 0.0949 µM) 21.7%; (second compound 3.16 µM, first compound 0.3 µM) 13.9%. In addition, the viability, T/C (second compound 10 µM, first compound 0.000949 µM) was 5.03%; the viability, T/C (second compound 10 µM, first compound 0.003 µM) was 5.63%; the viability, T/C (second compound 10 µM, first compound 0.00949 µM) is 6.51%; the viability, T/C (second compound 10 µM, first compound 0.03 µM) was 3.31%; the viability, T/C (second compound 10 µM, first compound 0.0949 µM) is 4.86%; the viability, T/C (second compound 10 µM, first compound 0.3 µM) was 3.7%.

For `O=C(C=Cn1cnc(-c2cc(C(F)(F)F)cc(C(F)(F)F)c2)n1)NNc1cnccn1`, the viability, T/C is 103% and 108% and 124% (compound 0.00949 µM); 102% and 118% and 111% (compound 0.03 µM); 83.7% and 73.7% and 79.4% (compound 0.0949 µM); 42.4% and 48.4% and 54.7% (compound 0.3 µM); 29.9% and 28.1% and 41.4% (compound 0.949 µM); 22.9% and 24.3% and 29.5% (compound 3 µM). Moreover, the IC50 (curve of compound) is 246 nM and 245 nM and 422 nM.

Turning to `Nc1ncn(C2CC(O)C(CO)O2)c(=O)n1` (centres undefined) + CC(CO)NC(=O)c1cc(-c2ccc(Cl)cc2)nn(-c2cnn(C)c2)c1=O, the IC50 was over 1000 nM under setting [1]; over 1000 nM under setting [2]; over 1000 nM under setting [3]; over 1000 nM under setting [4]; over 1000 nM under setting [5]. In addition, the viability, T/C by setting is: (second compound 0.1 µM, first compound 0.00316 µM) 110%; (second compound 0.1 µM, first compound 0.01 µM) 116%; under setting [6], 109%; under setting [7], 65.8%; under setting [8], 87.7%; under setting [9], 67.5%. Further, the viability, T/C is 105% (second compound 0.316 µM, first compound 0.00316 µM); 111% (second compound 0.316 µM, first compound 0.01 µM); 109% under setting [10]; 76.2% under setting [11]; 69.9% under setting [12]; 63.8% under setting [13]. For the same compound, the viability, T/C runs as follows: (second compound 1 µM, first compound 0.00316 µM) 98.2%; (second compound 1 µM, first compound 0.01 µM) 93.4%; under setting [14], 112%; under setting [15], 95.8%; under setting [16], 75.4%; under setting [17], 62.8%. Further, the viability, T/C was 74.3% (second compound 3.16 µM, first compound 0.00316 µM); 102% (second compound 3.16 µM, first compound 0.01 µM); 81.3% under setting [18]; 67.9% under setting [19]; 59.2% under setting [20]; 57.3% under setting [21]. Moreover, the viability, T/C was 80.4% (second compound 10 µM, first compound 0.00316 µM); 83.1% (second compound 10 µM, first compound 0.01 µM); 79.3% under setting [22]; 67.1% under setting [23]; 58.2% under setting [24]; 63.2% under setting [25].
